According to patent US20220153746A1, “NITROGEN OXIDE-DONATING PDE-5 AND/OR PDE-6 INHIBITOR COMPOUNDS, AND USES THEREOF” (ILDONG PHARMACEUTICAL CO., LTD., priority 2020, published 2022):
“And” between values parts separate entries of the source, which are not always exact repeats. Equal entries are not always repeated. Where two headings read alike, the source gives them in different places.

Experiment: TD Phase (Groups 1 and 3): plasma and ocular tissue concentrations and pharmacokinetics of Compound 18 and its metabolite Compound 4 after once daily ocular instillation of Compound 18 nanosuspension for 7 days
Type: in vivo, New Zealand white rabbits
Settings: for Compound 18 Lens Homogenate Conc.: homogenate dilution factor 5; for Cornea homogenate concentration: homogenate dilution factor 15; for concentration at 1 h: Group 1, 1 h
Excerpt: This example illustrates the procedures and results for the levels of Compound 18 and its metabolite Compound 4 in plasma and ocular tissues of normotensive rabbits following ocular instillation of Compound 18 once daily for 7 consecutive days.
Twenty five (25) male New Zealand white rabbits were divided into 5 groups of varying amounts of animals per group.
The Test article, Compound 18 was formulated as a 2% nanosuspension in DI water containing 0.2% PS80 (polyoxyethylenesorbitan, monooleate (Tween 80)) and 0.4% HPMC (hydroxypropylmethylcellulose) at pH 6.77. Referred to herein as “Compound 18 nanosuspension.”
The study consisted of three groups (Groups 1-3) of 19 male rabbits (NZW) that underwent once daily morning ocular installation (1 eyedrop) for 7 consecutive days (Day 0-6). Groups 4-5 each consisted of 3 male rabbits (NZW) that were not dosed.
Blood samples (1 mL) were collected from the jugular vein at the intervals set out below for each group. The samples were then inverted several times following collection and held on wet ice until centrifuged. Samples were centrifuged within 60 minutes of collection under refrigeration (set at 5° C. for 10 minutes at 2000 g.
Group 1 (Pilot Study, terminal blood collection): blood was collected from 3 animals at 1 hour post day 7 dose of Compound 18 nanosuspension.
Group 3 (TD Phase, terminal blood collection): blood was collected from 3 animals at 0.5 hour, 3 animals at 2 hours, 3 animals at 4 hours, and 3 animals at 8 hours post day 7 dose of Compound 18 nanosuspension.
(§1) Group 1 (Pilot Study): 3 animals were terminated at 1 hour post Day 7 dose of Compound 18 nanosuspension. Following blood collection and termination, ocular tissues (aqueous humor, vitreous humor, cornea, iris/ciliary body, lens, optic nerve, retina, sclera/choroid, and trabecular meshwork) were collected from each animal and the tissue weights were recorded. Note: sclera and choroid were collected together. Iris and ciliary body were collected together.
as §1, with “3 (TD Phase):” for “1 (Pilot Study):”, “0.5 hour, 3 animals at 2 hours, 3 animals at 4 hours, and 3 animals at 8 hours” for “1 hour”
Plasma and tissue samples from treated animals (Groups 1-3) were analyzed for Compound 18 and its metabolite Compound 4 concentrations by LC-MS/MS.
Pharmacokinetic analysis was conducted using WinNonlin Version 6.2.1 (Pharsight, Mountain View, Calif.), operating as a validated software system. Noncompartmental analysis was conducted using the extravascular administration model for ocular instillation dosing.
The peak plasma and ocular tissue concentration, time to achieve peak plasma and ocular tissue concentration, half-life, and area under the plasma and ocular tissue concentration-time curve (Cmax, Tmax, T1/2, and AUC) were calculated from the TD phase combined with the pilot study mean animal plasma and ocular tissue concentrations for each sampling time/dose group for Compound 18 and its metabolite Compound 4.
BA Assay: Quantitation Range 0.05 to 100 ng/mL for Compound 18, 0.15 to 100 ng/mL for Compound 4.
3. Pipet 50 μL of each type of pre-spiked ocular tissue samples (AH/VH) for QC samples, 50 μL of incurred aqueous humor, and vitreous humor sample (if applicable) into a 96 well plate.
Ocular Tissues Homogenate Preparation: Incurred rabbit ocular tissues were weighed in Genogrinder tubes (plastic tubes with small beads) at the time of removal from the animal and stored frozen (<−70° C.) until analysis. The rabbit incurred ocular tissues were thawed on wet ice. […]

[1] = TD Phase, Group 3, 4 h, Mean, BQL set to 0
[2] = TD Phase, Group 3, 4 h, individual animals
[3] = TD Phase, Group 3, 4 h, individual animals, BQL set to 0
[4] = TD Phase, Group 3, 4 h, individual animals, homogenate dilution factor 20
[5] = TD Phase, Group 3, 8 h, Mean, BQL set to 0
[6] = TD Phase, Group 3, 8 h, individual animals
[7] = TD Phase, Group 3, 8 h, individual animals, BQL set to 0
[8] = TD Phase, Group 3, 8 h, individual animals, homogenate dilution factor 20

Which “Compound 18 Trahecular Meshwork Homogenate Conc.” value (TD Phase, Group 3, 2 h, individual animals, homogenate dilution factor 20) does the source give for `CCCc1nn(C)c2c(=O)[nH]c(-c3cc(S(=O)(=O)N4CC(CCCO[N+](=O)[O-])C4)ccc3OCC)nc12` [Compound 18, 3-(1-((4-ethoxy-3-(1-methyl-7-oxo-3-propyl-6,7-dihydro-1H-pyrazolo[4,3-d]pyrimidin-5-yl)phenyl)sulfonyl)azetidin-3-yl)propyl nitrate] here?
Its value is “BQL (BQL = Below lower limit of quantitation (0.0500 ng/mL for Compound 18)”.

What about the “Compound 18 Retina Homogenate Conc.” value (TD Phase, Group 3, 2 h, individual animals, homogenate dilution factor 20 (164 for animal 207671)) of the same compound?
Its value is 0.192 ng/mL and 3.47 ng/mL and 0.17 ng/mL.

And the “Compound 18 Aqueous Humor Conc.” value [1]?
Its value is “BQL (BQL = Below lower limit of quantitation (0.0500 ng/mL for Compound 18)”.

What about the “Compound 18 Plasma Conc.” value [1] of the same compound?
The value was “BQL (BQL = Below lower limit of quantitation (0.0500 ng/mL for Compound 18)”.

And the “Compound 18 Vitreous Humor Conc.” value [1]?
Its value is “BQL (BQL = Below lower limit of quantitation (0.0500 ng/mL for Compound 18)”.

What about the “Compound 18 Aqueous Humor Conc.” value [2] of the same compound?
Its value is “BQL (BQL = Below lower limit of quantitation (0.0500 ng/mL for Compound 18)”.

What about the “Compound 18 Plasma Conc.” value [2] of the same compound?
The value was “BQL (BQL = Below lower limit of quantitation (0.0500 ng/mL for Compound 18)”.

And the “Compound 18 Vitreous Humor Conc.” value [2]?
Its value is “BQL (BQL = Below lower limit of quantitation (0.0500 ng/mL for Compound 18)”.

What about the “Final Compound 18 Optic Nerve Conc.” value [2] of the same compound?
Its value is 248 ng/g and 31.4 ng/g and 104 ng/g.

What about the “Final Compound 18 Iris/Ciliary Body Conc.” value [3] of the same compound?
The value was 5.78 ng/g and 0 ng/g and 8.84 ng/g.

What about the “Final Compound 18 Lens Conc.” value [3] of the same compound?
The value was 0 ng/g (2×) and 0.384 ng/g.

And the “Final Compound 18 Retina Conc.” value [3]?
Its value is 39.6 ng/g and 6.02 ng/g and 36.2 ng/g.

And the “Compound 18 Lens Homogenate Conc.” value [2]?
Its value is “BQL (BQL = Below lower limit of quantitation (0.0500 ng/mL for Compound 18)”.

What about the Cornea homogenate concentration [2] of the same compound?
The Cornea homogenate concentration was “BQL (BQL = Below lower limit of quantitation (0.0500 ng/mL for Compound 18)”.

And the “Compound 18 Iris/Ciliary Body Homogenate Conc.” value [4]?
The value was “BQL (BQL = Below lower limit of quantitation (0.0500 ng/mL for Compound 18) and 0.442 ng/mL”.

What about the “Compound 18 Optic Nerve Homogenate Conc.” value [4] of the same compound?
Its value is 12.4 ng/mL and 1.57 ng/mL and 5.20 ng/mL.

And the “Compound 18 Retina Homogenate Conc.” value [4]?
The value was 1.98 ng/mL and 0.301 ng/mL and 1.81 ng/mL.

What about the “Compound 18 Aqueous Humor Conc.” value [5] of the same compound?
The value was “BQL (BQL = Below lower limit of quantitation (0.0500 ng/mL for Compound 18)”.

And the “Compound 18 Vitreous Humor Conc.” value [5]?
Its value is “BQL (BQL = Below lower limit of quantitation (0.0500 ng/mL for Compound 18)”.

And the “Compound 18 Aqueous Humor Conc.” value [6]?
Its value is “BQL (BQL = Below lower limit of quantitation (0.0500 ng/mL for Compound 18)”.

What about the “Compound 18 Plasma Conc.” value [6] of the same compound?
The value was “BQL (BQL = Below lower limit of quantitation (0.0500 ng/mL for Compound 18)”.

What about the “Compound 18 Vitreous Humor Conc.” value [6] of the same compound?
Its value is “BQL (BQL = Below lower limit of quantitation (0.0500 ng/mL for Compound 18)”.

What about the “Final Compound 18 Optic Nerve Conc.” value [6] of the same compound?
Its value is 26.2 ng/g and 108 ng/g and 50.6 ng/g.

And the “Final Compound 18 Iris/Ciliary Body Conc.” value [7]?
Its value is 2.90 ng/g and 0 ng/g (2×).

What about the “Final Compound 18 Lens Conc.” value [7] of the same compound?
The value was 0 ng/g.

And the “Final Compound 18 Retina Conc.” value [7]?
The value was 8.70 ng/g and 3.64 ng/g and 9.16 ng/g.

And the “Compound 18 Lens Homogenate Conc.” value [6]?
The value was “BQL (BQL = Below lower limit of quantitation (0.0500 ng/mL for Compound 18)”.

And the Cornea homogenate concentration [6]?
The Cornea homogenate concentration was “BQL (BQL = Below lower limit of quantitation (0.0500 ng/mL for Compound 18)”.

What about the “Compound 18 Iris/Ciliary Body Homogenate Conc.” value [8] of the same compound?
The value was “BQL (BQL = Below lower limit of quantitation (0.0500 ng/mL for Compound 18)”.

What about the “Compound 18 Optic Nerve Homogenate Conc.” value [8] of the same compound?
Its value is 1.31 ng/mL and 5.41 ng/mL and 2.53 ng/mL.

What about the “Compound 18 Retina Homogenate Conc.” value [8] of the same compound?
The value was 0.435 ng/mL and 0.182 ng/mL and 0.458 ng/mL.

And the “Compound 18 Trahecular Meshwork Homogenate Conc.” value [8]?
The value was “BQL (BQL = Below lower limit of quantitation (0.0500 ng/mL for Compound 18)”.

What about the “tissue of highest concentration” value (TD phase plasma and ocular tissues) of the same compound?
Its value is “highest in optic nerve and sclera/choroid”.

What about the AUC0-8 (aqueous humor, vitreous humor, plasma, and lens (relatively low exposure)) of the same compound?
Its AUC0-8 is 0.02-1.2 h*ng/mL or h*ng/g.

What about the AUC0-8 (cornea, Day 7, from mean concentrations) of the same compound?
Its AUC0-8 is 209 ng·h/g.

What about the AUC0-8 (iris/ciliary body, Day 7, from mean concentrations) of the same compound?
Its AUC0-8 is 150 ng·h/g.

What about the AUC0-8 (lens, Day 7, from mean concentrations) of the same compound?
The AUC0-8 was 1.19 ng·h/g.

And the concentration at 1 h (male, New Zealand white, rabbit, aqueous humor, other: ocular instillation (eye drop), 0.8 mg/kg/day, TD Phase, Mean, BQL set to 0, read-out: Compound 18 Aqueous Humor Conc.)?
The concentration at 1 h was 0.063 ng/mL.

What about the concentration at 1 h (male, New Zealand white, rabbit, aqueous humor, other: ocular instillation (eye drop), 0.8 mg/kg/day, TD Phase, individual animals, read-out: Compound 18 Aqueous Humor Conc.) of the same compound?
The concentration at 1 h was 0.189 ng/mL.

What about the concentration at 4 h (male, New Zealand white, rabbit, iris/ciliary body homogenate, topical, 2 mg/day, TD Phase, Group 3, 4 h, individual animals, homogenate dilution factor 20, read-out: Compound 18 Iris/Ciliary Body Homogenate Conc.) of the same compound?
The concentration at 4 h was 0.289 ng/mL.

What about the concentration at 8 h (male, New Zealand white, rabbit, iris/ciliary body homogenate, topical, 2 mg/day, TD Phase, Group 3, 8 h, individual animals, homogenate dilution factor 20, read-out: Compound 18 Iris/Ciliary Body Homogenate Conc.) of the same compound?
Its concentration at 8 h is 0.145 ng/mL.

What about the concentration at 1 h (male, New Zealand white, rabbit, iris/ciliary body, topical, 0.798 mg/kg/day, TD Phase, Mean, read-out: Final Compound 18 Iris/Ciliary Body Conc.) of the same compound?
Its concentration at 1 h is 107 ng/g.

What about the concentration at 0.5 h (male, New Zealand white, rabbit, iris/ciliary body, topical, 0.798 mg/kg/day, TD Phase, Group 3, 0.5 h, Mean, read-out: Final Compound 18 Iris/Ciliary Body Conc.) of the same compound?
The concentration at 0.5 h was 90.1 ng/g.
